Our source for the ER values is ChEMBL document CHEMBL1144947, “L-Serine and glycine based ceramide analogues as transdermal permeation enhancers: polar head size and hydrogen bonding” (2003).

The species entered for experiment [1] is Homo sapiens. The experiment can be described thus: Enhancement ratio in theophylline permeation through human skin from isopropyl myristate (IPM) suspension (in vitro). It counts as functional.
The species entered for experiment [2] is Homo sapiens. The experiment can be described thus: Enhancement ratio in theophylline permeation through human skin from water (in vitro). It counts as functional.

Turning to `CCCCCCCC/C=C/CCCCCCCC(=O)NC(CO)C(=O)OCCCCCCCCCCCC` (centres undefined), the ER in the experiment listed under Homo sapiens [1] was found to be 1.49; in the experiment filed under Homo sapiens [2] it was 1.26.
The like results for `CCCCCCCCCCCCOC(=O)C(CO)NC(=O)C(CO)NC(=O)CCCCCCCCCCC` (centres undefined) were, in that order, 1.07 and 1.26.
The like results for `CCCCCCCCCCCCOC(=O)CNC(=O)CCCCCCCCCCC` were, in that order, 1.11 and 12.5.
As for `CCCCCCCCCCCCOC(=O)C(CO)NC(=O)C(O)C(O)C(=O)OCCCCCCCCCCC` (centres undefined), the ER is reported as 1.45 in the experiment listed under Homo sapiens [1] and 1.39 in the experiment listed under Homo sapiens [2].
The like results for `CCCCCCCCCCCCOC(=O)CNC(=O)CNC(=O)CCCCCCCCCCC` were, in that order, 1.09 and 2.28.
Consider `CCCCCCCCCCCCOC(=O)C(CO)NC(=O)CCCCCCCCCCC` (centres undefined), for which the values for the ER in the experiment filed under Homo sapiens [1] and in the experiment filed under Homo sapiens [2] were 1.21 and 2.74, respectively.
Consider `CCCCCCCCCCCCN1CCCCCC1=O` [LAUROCAPRAM], for which the ER in the experiment filed under Homo sapiens [1] stood at 0.6; in the experiment filed under Homo sapiens [2], 2.5.
